Values quoted from earlier work, collected in patent publication US8426044B2, “Method for imparting antimicrobial activity to a medical device” (Board of Regents, The University of Texas System, priority 2009, dated 2013).

Experiments:
[1] = for solubility in organic solvents: organic solvents incl. alcohols, ketones, ethers, aldehydes, acetonitrile, acetic acid, methylene chloride, chloroform
[2] = tested on: Pseudomonas aeruginosa cells embedded in a biofilm; settings: MBC for the identical strain grown in liquid suspension

| SMILES | solubility in organic solvents [1] | solubility in water [1] | antibiotic level unable to kill biofilm-embedded cells [2] |
| --- | --- | --- | --- |
| [H]/N=C(\N/C(=N/[H])NCCCCCCNC(=N)NC(=N)Nc1ccc(Cl)cc1)Nc1ccc(Cl)cc1 [Chlorhexidine] | soluble in both water and organic solutions | soluble in both water and organic solutions | – |
| CO[C@H]1/C=C/O[C@@]2(C)Oc3c(C)c(O)c4c(O)c(c(/C=N/N5CCN(C)CC5)c(O)c4c3C2=O)NC(=O)/C(C)=C\C=C\[C@H](C)[C@H](O)[C@@H](C)[C@@H](O)[C@@H](C)[C@H](OC(C)=O)[C@@H]1C [Rifampin] | freely soluble in acidic aqueous solutions and organic solutions | very slightly soluble in water | – |
| NC[C@H]1O[C@H](O[C@H]2[C@H](O)[C@@H](O[C@H]3O[C@H](CO)[C@@H](O)[C@H](N)[C@H]3O)[C@H](N)C[C@@H]2N)[C@H](N)C[C@@H]1O [tobramycin] | – | – | greater than 50 times the minimum bactericidal concentration (MBC) |
